# Results as given in a melting point compilation (Tetko et al.; mined from patent text by program, amines drawn as free bases though some values may be those of a salt).
row,melting point,SMILES
1,206 °C,O=C(O)c1c(O)c(-c2ccccc2)nc2ccccc12
2,184 °C,COc1ccc2oc(Cc3c(Cl)cccc3Cl)c(CC#N)c2c1
3,99 to 101 °C,COC(=O)CSc1c(C)cc(C(O)(C(F)(F)F)C(F)(F)F)cc1C
4,104 to 108 °C,CSc1cc(C)nc(SC)c1NC(=O)CCCCCCCSc1nc2ccccc2s1
5,195 to 197 °C,Cn1cc(Br)c(=O)c(-c2ccccc2)c1
6,137 to 139 °C,O=C(O)Cn1c(Cc2ccccc2)ccc1-c1ccccc1
7,104 °C,COc1c(C=C[N+](=O)[O-])cc2c(c1OC)CCC2
8,88 to 88.5 °C,COc1cc([N+](=O)[O-])ccc1-c1cccc(C(=O)O)c1
9,144 to 146 °C,O=C(O)COCC(=O)OCC1CN(C(=O)Oc2ccccc2)CCC1c1ccc(F)cc1 (stereo not drawn)
10,123 to 126 °C,CC(=O)OC1CSC(Oc2cccc(-c3cccnc3)c2)C(OC(C)=O)C1OC(C)=O (stereo not drawn)
11,251 to 253 °C,COc1ccc2[nH]c3c([N+](=O)[O-])ccc(Cl)c3c(=O)c2c1Cl
12,121 to 123 °C,COc1ccc(C2=NN(C3CCN(C(=O)CN4CCN(C)CC4)CC3)C(=O)C(C)(C)C2)c2c1OC(C)(C)C2
13,96 to 98 °C,CC(=O)OC1C(OC(=O)c2ccccc2)C(COC(=O)c2ccccc2)OC1n1cc(F)c(=O)[nH]c1=O (stereo not drawn)
14,256 to 258 °C,O=C1Nc2ccccc2Sc2c1cccc2C(F)(F)F
15,207 to 208 °C,On1c(C(F)(F)F)nc2nc(Cl)c(Cl)cc21
16,244 to 246 °C,O=C(O)c1ccc(-n2c(-c3ccccc3)cc3c2CCCC3)cc1
17,188 °C,NS(=O)(=O)c1ccc(-c2oc3cc(F)ccc3c(=O)c2-c2ccccc2F)cc1
18,168 to 175 °C,c1c(NC23CC4CC(CC(C4)C2)C3)nc(NC23CC4CC(CC(C4)C2)C3)nc1N1CCNCC1
19,178 to 180 °C,COc1c(C)cc(C)cc1/C=C/C(=O)O
20,189 to 190 °C,O=C(NCc1ccc(Cl)cc1)c1cnc2cc(C(F)(F)F)ccc2c1O
21,190 to 192 °C,CNC1([C@@H]2CCN(c3ccc4c(=O)c(C(=O)O)cn(C5CC5)c4c3C)C2)CC1
22,226 to 228 °C,Nc1nc(N)c2cc(Oc3ccc(Cl)cc3)ccc2n1
23,55 to 58 °C,Cc1ccc2c(c1)[C@H](Nc1ncnc(NC(=O)C(F)(F)F)n1)[C@@H](C)C2
24,91 to 93 °C,CN(C(=O)CCCCC1SCC2NC(=O)NC21)c1ccc(/C=C/c2c(F)cccc2F)cc1 (stereo not drawn)

row,melting point,SMILES
1,186 °C,CS(=O)(=O)c1ncc2c(n1)N(c1ccccc1)C(=O)N(c1ccccc1Cl)C2
2,192 to 193 °C,Cc1c(N2C[C@@H](N)C(C)(C)C2)c(F)c(N)c2c(=O)c(C(=O)O)cn(C3CC3)c12
3,123 to 124 °C,NC(=O)OCC(O)COc1noc2ccc(Cl)cc12 (stereo not drawn)
4,131 to 132 °C,OCCNC(=S)NC(=Nc1cccc2ccccc12)c1ccccc1
5,205 °C,COc1c(N2CCC(N)C(C)(C)C2)c(F)c(N)c2c(=O)c(C(=O)O)cn(C3CC3)c12 (stereo not drawn)
6,160 to 162 °C,COc1nc(C)c(C)nc1NC(=S)N1CCN(c2cc(C)cc(C)c2)CC1
7,132 to 136 °C,O=C(C(=Cc1ccc(Cl)cc1)c1ccc(Cl)cc1)c1ccc(O)cc1
8,230 to 232 °C,COc1c(Oc2ccc3ncc([N+](=O)[O-])n3n2)cnc(CNc2nc(C)nc(C)c2Cl)c1C
9,107 to 108 °C,COC(=O)Cc1cn(-c2ccccc2)nc1OCc1ccc(OCc2nc(-c3ccccc3)oc2C)c(OC)c1
10,142 to 143 °C,CCCc1c(OCCCOc2cccc(C(=O)O)c2)ccc(C(C)=O)c1O
11,131 to 133 °C,CCC1(CCCCN2CCN(c3ccccn3)CC2)C(=O)Nc2ccccc21 (stereo not drawn)
12,228 to 230 °C,CNc1nc(NCc2ccc(NC(=O)c3ccc(F)cc3)cc2)c2c(C)cccc2n1
13,> 300 °C,c1ccc(Nc2nccc(-c3ccc(-c4ccc(N(c5ccccc5)c5ccccc5)cc4)cc3)n2)cc1
14,80 to 83 °C,O=C(O)CNC(=O)c1cccc(NC(=O)C(CS)Cc2ccccc2)c1 (stereo not drawn)
15,105 to 107 °C,CCOC(=O)c1ccc(CCN2CCN(C(=O)CCc3cc(C(C)(C)C)c(O)c(C(C)(C)C)c3)CC2)cc1
16,297 to 299 °C,COc1ccc(CSc2cccc3c2C(=O)c2cccc(SCc4ccc(OC)cc4)c2C3=O)cc1
17,112 to 114 °C,COc1ccccc1N1CCN(c2cc3ccccc3cn2)CC1
18,112 to 113 °C,OC(CS)(Cn1cncn1)c1ccc(F)cc1F (stereo not drawn)
19,246 to 247 °C,O=C(O)c1ccc(OCCCNc2ccc(NCc3ccc4c(c3)OCCO4)cc2)cc1
20,100 °C,C[Si](C)(C)C1=C(c2ccccc2)C(c2ccccc2)=C([Si](C)(C)C)[Si]1(C)C
21,110 °C,OCCn1c2ccccc2c2c(N3CCCC3)nc(N3CCCC3)nc21
22,264 to 266 °C,COc1ccc(-n2nc(O)c3c(c2=O)Cc2ccc(Cl)cc2N3)c(C)c1
23,189 to 191 °C,CCOC(=O)c1cc([N+](=O)[O-])c(C(=O)O)cc1C(=O)O
24,101 to 103 °C,COC=C(C(=O)OC)c1cccc([N+](=O)[O-])c1

row,melting point,SMILES
1,51 to 52 °C,Brc1cnn(Cc2ccccc2)c1
2,81 to 85 °C,NS(=O)(=O)Oc1ccccc1
3,98 to 100 °C,CCOc1cc(Cc2ccc(Cl)cc2Cl)nc(-c2ccc3c(n2)CCCC3)n1
4,102 °C,NCCc1cccc(N2C(=O)N(c3ccc(C(F)(F)F)cc3Cl)Cc3cnc(Nc4ccccc4)nc32)c1
5,253 to 254 °C,Cc1nc(-c2ccc3c(c2)c2cc(-c4ccc(Cl)cc4Cl)c(=O)n(C)c2n3C)cs1
6,216 to 217 °C,CC(C)(C)OC(=O)NC(Cc1ccccc1)C(O)C(Cc1ccccc1)NC(=O)[C@H](CC(N)=O)NC(=O)OCc1ccccc1 (stereo partly drawn)
7,141 to 142 °C,CCCOc1c(OC)cc([C@H]2CC[C@H](c3cc(OC)c(OC)c(OC)c3)O2)cc1S(=O)(=O)CCO (relative stereo)
8,148 to 149 °C,c1c(C(CN2CCNCC2)N2CCNCC2)nc(N2CCCC2)nc1N1CCCC1 (stereo not drawn)
9,102 to 108 °C,CCCCc1ccc(-c2ccc3c(c2)CC[C@H]2N(C)C(=O)CC[C@]32C)cc1
10,54 to 55 °C,COC12CC(C)(C)C(OC(C)=O)C(C=C1C)O2 (stereo not drawn)
11,134 to 135 °C,O=[N+]([O-])c1cc2oc(-c3ccccc3)nc2cc1N1CCOCC1
12,98 to 99 °C,Nc1ccc(S(=O)(=O)C(F)(F)C(F)Cl)cc1Cl (stereo not drawn)
13,63 to 65 °C,CCCOc1ccc2c(c1)C(=O)C[C@H]2c1ccc2c(c1)OCO2
14,158 to 159 °C,CC(OC(=O)C1N2C(=O)C(NC(=O)Cc3ccccc3)C2S(=O)C1(C)C)C1CC1 (stereo not drawn)
15,132 to 134 °C,CC(=O)C(Cl)=NNc1ccccc1
16,165 to 166 °C,O=C(O)CS(=O)c1ccc2c(-c3ccccc3F)noc2c1 (stereo not drawn)
17,186 to 187 °C,O=C1Nc2cccc(I)c2C(=O)N2CC[C@@H]12
18,96 °C,Nc1ccc(C(=O)OCCCN2CCOCC2)c(N)c1
19,57 to 61 °C,Cc1ccc(C=CC(=O)c2ccccc2)o1
20,154 to 159 °C,CCOC(=O)C(=CNc1ncnc2ccc(N3CCN(C)CC3)cc12)C(=O)OCC
21,115 to 116 °C,NNc1ccc(C2CCCCC2)cc1
22,155 to 157 °C,CC(C)(O)C(=O)Nc1ccc2ccccc2c1
23,250 to 251 °C,CC(=O)N(C)Cc1ccc(C(=O)Cn2cnc3cc(-c4ccc(Cl)cc4)sc3c2=O)cc1
24,135 to 136 °C,BrCCOc1ccc2[nH]c3ccccc3c2c1

row,melting point,SMILES
1,132 to 134 °C,Cc1c(C)c2c(c(C)c1NC(=O)CC(C)(C)C)C(c1ccc(C(C)(C)O)cc1)CO2 (stereo not drawn)
2,202 to 205 °C,O=C(O)c1cnncc1C(=O)c1cc(F)ccc1F
3,29.5 to 30 °C,C#CCCCCCCNC(=O)C(F)(F)F
4,79 to 80 °C,CCc1ncnc(NC(C)c2ccc([Si](C)(C)C)cc2)c1Cl (stereo not drawn)
5,60 °C,COC(=O)c1ccc(OCCCCCCCc2cc(C)no2)cc1
6,136 to 138 °C,CCOC(=O)C1=Cc2cc(C(=O)Cc3ccccc3)ccc2OC1C(F)(F)F (stereo not drawn)
7,204 °C,CN(C(=O)CN(C(=O)CNC(=O)Nc1cccc(C#N)c1)c1ccccc1)c1ccccc1
8,129 °C,COc1cc(Cl)cnc1OCC#Cc1cc(Cl)ccn1
9,128 to 130 °C,CCN(CC)c1ccc(C(c2ccc(N(C)C)cc2C(=O)O)c2ccc(N(C)C)cc2N(C)C)cc1 (stereo not drawn)
10,176 to 177 °C,CP1(=O)c2ccccc2CN1c1ccc(Oc2ccccc2)cc1 (stereo not drawn)
11,146 to 150 °C,Cc1nn2c(-c3ccc(Cl)cc3Cl)cccc2c1[N+](=O)[O-]
12,127 to 128 °C,CCc1c(CCC(=O)O)ccc2c1OCO2
13,112 to 114 °C,CCOC(=O)c1cnn(-c2ccccn2)c1C#N
14,83 to 85 °C,CCN(CC)C(C)CN1CCc2c(c(=O)oc3cc(OC)ccc23)C1 (stereo not drawn)
15,239 to 242 °C,O=[N+]([O-])c1ccc(Oc2ccc(Oc3ccc([N+](=O)[O-])cc3)c(P(=O)(c3ccccc3)c3ccccc3)c2)cc1
16,114 to 116 °C,CCCC(=O)c1cnc2c(OC)cccc2c1Cl
17,118 to 120 °C,COc1ccc(-c2ncnnc2-c2ccc(OC)cc2)cc1
18,136 °C,CCCc1c(OCCCOc2ccc(Br)cc2)ccc2c1OC(CCC(=O)O)(CCC(=O)O)CC2=O
19,69 to 70 °C,Cc1ccc(C=C2CCc3cc(OCCc4c[nH]cn4)ccc3C2=O)s1
20,86 to 88 °C,COc1cc(CBr)ccc1OC(=O)c1ccccc1
21,103 to 106 °C,CCOC(=O)C(=Cc1cccc([N+](=O)[O-])c1)C(C)=O

row,SMILES,melting point
1,NCCNC(=O)CN1CCC(O)C1=O (stereo not drawn),110 to 112 °C
2,C=CC1(O)CN2CCC1CC2 (stereo not drawn),76 to 80 °C
3,COc1cc(C2CCN(CCF)CC2)ccc1Nc1ncc2ccc(-c3ccccc3N(C)S(C)(=O)=O)n2n1,90 to 97 °C
4,O=C(CCNC(=O)[C@H](Cc1ccc(-c2ccccc2)cc1)NCP(=O)(O)Oc1ccccc1)OCc1ccccc1,243 to 244 °C
5,O=C(Nc1cccc(O)c1)NC1N=C(c2ccccc2F)c2ccccc2N(CC(=O)N2CC3CCC(CC3)C2)C1=O (racemic),184 to 185 °C
